Source: ChEMBL document CHEMBL1201862, “PubChem BioAssay data set” (2004)
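The compound was tested at five concentrations on cells cultured in 96-well plates, with a 48-hour exposure period. Here, GI50 denotes the concentration required for 50% inhibition of growth.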 Calls of active or inactive are those of the source. Cut-off read from the data, not from the text of the source: active = GI50 up to about 1.1 µM and inactive = higher.

Columns and labels:
Assay in all cases: growth of human tumour cells (NCI), 48 h
786-0 = test system: 786-0
A498 = test system: A498
A549 = test system: A549
ACHN = test system: ACHN
BT-549 = test system: BT-549
CAKI-1 = test system: CAKI-1
CCRF-CEM = test system: CCRF-CEM
COLO 205 = test system: COLO 205
DU-145 = test system: DU-145
EKVX = test system: EKVX
HCC 2998 = test system: HCC 2998
HCT-116 = test system: HCT-116
HCT-15 = test system: HCT-15
HL-60 = test system: HL-60
HOP-62 = test system: HOP-62
HOP-92 = test system: HOP-92
HT-29 = test system: HT-29
Hs-578T = test system: Hs-578T
IGROV-1 = test system: IGROV-1
K562 = test system: K562
KM12 = test system: KM12
LOX IMVI = test system: LOX IMVI
M14 = test system: M14
MCF7 = test system: MCF7
MDA-MB-231 = test system: MDA-MB-231
MDA-MB-435 = test system: MDA-MB-435
MDA-N = test system: MDA-N
Malme-3M = test system: Malme-3M
NCI-H226 = test system: NCI-H226
NCI-H23 = test system: NCI-H23
NCI-H460 = test system: NCI-H460
NCI-H522 = test system: NCI-H522
NCI/ADR-RES = test system: NCI/ADR-RES
OVCAR-3 = test system: OVCAR-3
OVCAR-4 = test system: OVCAR-4
OVCAR-5 = test system: OVCAR-5
OVCAR-8 = test system: OVCAR-8
PC-3 = test system: PC-3
RPMI-8226 = test system: RPMI-8226
RXF 393 = test system: RXF 393
SF-268 = test system: SF-268
SF-295 = test system: SF-295
SK-MEL-28 = test system: SK-MEL-28
SK-MEL-2 = test system: SK-MEL-2
SK-MEL-5 = test system: SK-MEL-5
SK-OV-3 = test system: SK-OV-3
SN12C = test system: SN12C
SNB-19 = test system: SNB-19
SNB-75 = test system: SNB-75
SR = test system: SR
SW-620 = test system: SW-620
T47D = test system: T47D
TK-10 = test system: TK-10
U-251 = test system: U-251
UACC-257 = test system: UACC-257
UACC-62 = test system: UACC-62
UO-31 = test system: UO-31
MOLT-4 = test system: MOLT-4
SF-539 = test system: SF-539

Structure (SMILES): O=C(O)/C=C\C(=O)Nc1ccc2c(c1)-c1ccccc1C2
- GI50 (786-0): 91.4 µM (inactive)
- GI50 (A498): 94.6 µM (inactive)
- GI50 (A549): > 100 µM (inactive)
- GI50 (ACHN): > 100 µM (inactive)
- GI50 (BT-549): 39.8 µM (inactive)
- GI50 (CAKI-1): > 100 µM (inactive)
- GI50 (CCRF-CEM): 56.8 µM (inactive)
- GI50 (COLO 205): > 100 µM (inactive)
- GI50 (DU-145): 80.2 µM (inactive)
- GI50 (EKVX): 87.9 µM (inactive)
- GI50 (HCC 2998): 36.7 µM (inactive)
- GI50 (HCT-116): 99.3 µM (inactive)
- GI50 (HCT-15): 44.7 µM
- GI50 (HL-60): > 100 µM (inactive)
- GI50 (HOP-62): 81.3 µM (inactive)
- GI50 (HOP-92): 44.6 µM (inactive)
- GI50 (HT-29): > 100 µM (inactive)
- GI50 (Hs-578T): 44.5 µM (inactive)
- GI50 (IGROV-1): > 100 µM (inactive)
- GI50 (K562): 64.9 µM (inactive)
- GI50 (KM12): > 100 µM (inactive)
- GI50 (LOX IMVI): 77.3 µM (inactive)
- GI50 (M14): > 100 µM (inactive)
- GI50 (MCF7): 37.3 µM (inactive)
- GI50 (MDA-MB-231): > 100 µM (inactive)
- GI50 (MDA-MB-435): > 100 µM (inactive)
- GI50 (MDA-N): > 100 µM (inactive)
- GI50 (Malme-3M): 63.7 µM (inactive)
- GI50 (NCI-H226): 28.9 µM (inactive)
- GI50 (NCI-H23): 70.8 µM (inactive)
- GI50 (NCI-H460): > 100 µM (inactive)
- GI50 (NCI-H522): 37 µM (inactive)
- GI50 (NCI/ADR-RES): 56.1 µM (inactive)
- GI50 (OVCAR-3): 30.8 µM (inactive)
- GI50 (OVCAR-4): > 100 µM (inactive)
- GI50 (OVCAR-5): > 100 µM (inactive)
- GI50 (OVCAR-8): 77.4 µM (inactive)
- GI50 (PC-3): 69.2 µM (inactive)
- GI50 (RPMI-8226): 42.5 µM (inactive)
- GI50 (RXF 393): > 100 µM (inactive)
- GI50 (SF-268): 58.2 µM (inactive)
- GI50 (SF-295): > 100 µM (inactive)
- GI50 (SK-MEL-28): > 100 µM (inactive)
- GI50 (SK-MEL-2): 38.5 µM (inactive)
- GI50 (SK-MEL-5): > 100 µM (inactive)
- GI50 (SK-OV-3): > 100 µM (inactive)
- GI50 (SN12C): > 100 µM (inactive)
- GI50 (SNB-19): 42.3 µM (inactive)
- GI50 (SNB-75): > 100 µM (inactive)
- GI50 (SR): 44.9 µM (inactive)
- GI50 (SW-620): > 100 µM (inactive)
- GI50 (T47D): 88.1 µM (inactive)
- GI50 (TK-10): > 100 µM (inactive)
- GI50 (U-251): 56.2 µM (inactive)
- GI50 (UACC-257): 98.6 µM (inactive)
- GI50 (UACC-62): > 100 µM (inactive)
- GI50 (UO-31): > 100 µM (inactive)

Structure (SMILES): NNc1nc2ccccc2s1
- GI50 (786-0): > 100 µM (inactive)
- GI50 (A498): > 100 µM (inactive)
- GI50 (A549): > 100 µM (inactive)
- GI50 (ACHN): > 100 µM (inactive)
- GI50 (BT-549): > 100 µM (inactive)
- GI50 (CAKI-1): > 100 µM (inactive)
- GI50 (CCRF-CEM): 35.1 µM (inactive)
- GI50 (COLO 205): > 100 µM (inactive)
- GI50 (DU-145): > 100 µM (inactive)
- GI50 (EKVX): > 100 µM (inactive)
- GI50 (HCC 2998): > 100 µM (inactive)
- GI50 (HCT-116): > 100 µM (inactive)
- GI50 (HCT-15): > 100 µM
- GI50 (HL-60): > 100 µM (inactive)
- GI50 (HOP-92): > 100 µM (inactive)
- GI50 (HT-29): > 100 µM (inactive)
- GI50 (Hs-578T): > 100 µM (inactive)
- GI50 (IGROV-1): > 100 µM (inactive)
- GI50 (K562): > 100 µM (inactive)
- GI50 (KM12): > 100 µM (inactive)
- GI50 (LOX IMVI): > 100 µM (inactive)
- GI50 (M14): > 100 µM (inactive)
- GI50 (MCF7): > 100 µM (inactive)
- GI50 (MDA-MB-231): > 100 µM (inactive)
- GI50 (MDA-MB-435): > 100 µM (inactive)
- GI50 (MDA-N): > 100 µM (inactive)
- GI50 (MOLT-4): 37.3 µM (inactive)
- GI50 (Malme-3M): > 100 µM (inactive)
- GI50 (NCI-H226): > 100 µM (inactive)
- GI50 (NCI-H23): > 100 µM (inactive)
- GI50 (NCI-H460): > 100 µM (inactive)
- GI50 (NCI-H522): > 100 µM (inactive)
- GI50 (NCI/ADR-RES): > 100 µM (inactive)
- GI50 (OVCAR-4): > 100 µM (inactive)
- GI50 (OVCAR-5): > 100 µM (inactive)
- GI50 (OVCAR-8): > 100 µM (inactive)
- GI50 (PC-3): > 100 µM (inactive)
- GI50 (RPMI-8226): 72.8 µM (inactive)
- GI50 (RXF 393): > 100 µM (inactive)
- GI50 (SF-268): > 100 µM (inactive)
- GI50 (SF-539): > 100 µM (inactive)
- GI50 (SK-MEL-28): > 100 µM (inactive)
- GI50 (SK-MEL-2): > 100 µM (inactive)
- GI50 (SK-MEL-5): > 100 µM (inactive)
- GI50 (SN12C): > 100 µM (inactive)
- GI50 (SNB-19): > 100 µM (inactive)
- GI50 (SNB-75): > 100 µM (inactive)
- GI50 (SR): 53.2 µM (inactive)
- GI50 (SW-620): > 100 µM (inactive)
- GI50 (T47D): 55.2 µM (inactive)
- GI50 (TK-10): > 100 µM (inactive)
- GI50 (U-251): > 100 µM (inactive)
- GI50 (UACC-257): > 100 µM (inactive)
- GI50 (UACC-62): > 100 µM (inactive)
- GI50 (UO-31): > 100 µM (inactive)
